From patent US20250082652A1, “SIGNALLING-PATHWAY INHIBITOR COMBINATIONS FOR USE IN THE TREATMENT OF CANCER DISEASES” (UNIVERSITÄT ZU KÖLN, priority 2022, published 2025)

Tests used:
Type in all cases: cell-based
[1] = tested on: MBC M-191, M-190, M-108, and M-552 cell lines (murine ABC-DLBCL cell lines); experiment: Cell viability (CellTiter-Glo), single inhibitors; conditions: single agent, 72 hours, FIG. 1
Protocol: The murine MBC lines M-191, M-190, M-108 and M-552 were treated with (A) the IKK2 inhibitor LY-2409881 (0, 0.185, 0.556, 1.667, 5, 15 μM) or (B) the BCL-2 inhibitor ABT-199 (0, 11.1, 33.3, 100, 300 nM) for 72 hours and cell viability was measured by CellTiter-Glo®. The illustrations in FIG. 1 represent three independent experiments.
The murine MBC M-191, M-190, M-108, and M-552 cell lines were generated by adopting cells from murine Myd88p.L252P/wt;R26LSL.BCL2/wt;CD19Cre/wt tumors to cell culture conditions. BSQ10, BSQ12.4 and BSQ27 are stable cell lines generated from Cd79 bp.Y195H/wt;Myd88p.L252P/wt;R26LSL.BCL2/wt;CD19Cre/wt tumors. BWQ89.3 is a stable cell line derived from a murine Prdm1flox/flox;Myd88p.L252P/wt;R26LSL.BCL2/wt;CD19Cre/wt tumor. The MBC cell lines are derived from tumors spontaneously developing in mice that B cell-specifically express the Myd88 p.L252P mutation (the murine orthologue of the human p.L265P) from the endogenous locus in combination with a strong BCL2 overexpression derived from a Rosa26 knock-in allele. Both MYD88 mutations and BCL2 overexpression are frequently found in ABC-DLBCL and Myd88p.L252P/wt;R26LSL.BCL2/wt;CD19Cre/wt animals (abbreviated MBC) develop an ABC-DLBCL-like disease with high NF-kB activation (17). […]

[2] = tested on: murine cancer cell lines M108, M191, BSQ10, BSQ12.4, BSQ27, BWQ89.3; experiment: Cell viability (CellTiterGlo), IKK2 inhibitors with or without Nec1s and/or ABT-199, FIG. 3 A-F; conditions: 72 hrs; for synergistic killing of cancer cell lines (cell viability): ABT-199 combined with an IKK2 inhibitor (ML120B, BI605906 or PS1145), FIG. 3
Protocol: (§1) Murine (A-F) and human (G) cell lines were treated with IKK2 inhibitors in the absence or presence of a RIPK1 inhibitor and/or a BCL-2 inhibitor as indicated. Cell viability was measured after 72 hrs using CellTiterGlo assay. The data points represent mean values of independent experiments. A. The murine cell line M108 was treated with the IKK2 inhibitors ML120B, BI605906 and PS1145 in the absence or presence of the RIPK1 inhibitor Nec1s (10 μM or 20 μM, as indicated) and/or the BCL-2 inhibitor ABT-199 (125 nM or 250 nM as indicated). B. The murine cell line M191 was treated with the IKK2 inhibitors ML120B, PS1145 and BI605906 in the absence or presence of the RIPK1 inhibitor Nec1s (10 μM or 20 μM, as indicated) and/or the BCL-2 inhibitor ABT-199 (125 nM or 250 nM as indicated). C. The murine cell line BSQ10 was treated with the IKK2 inhibitors ML120B, PS1145 and BI605906 in the absence or presence of the RIPK1 inhibitor Nec1s (10 μM or 20 μM, as indicated) and/or the BCL-2 inhibitor ABT-199 (125 nM or 250 nM as indicated). D. The murine cell line BSQ12.4 was treated with the IKK2 inhibitors ML120B, PS1145 and BI605906 in the absence or presence of the RIPK1 inhibitor Nec1s (10 μM or 20 μM, as indicated) and/or the BCL-2 inhibitor ABT-199 (125 nM or 250 nM as indicated). E. The murine cell line BSQ27 was treated with the IKK2 inhibitors ML120B, PS1145 and BI605906 in the absence or presence of the RIPK1 inhibitor Nec1s (10 μM or 20 μM, as indicated) and/or the BCL-2 inhibitor ABT-199 (125 nM or 250 nM as indicated). F. The murine cell line BWQ89.3 was treated with the IKK2 inhibitors ML120B, PS1145 and BI605906 in the absence or presence of the RIPK1 inhibitor Nec1s (10 μM or 20 μM, as indicated) and/or the BCL-2 inhibitor ABT-199 (125 nM or 250 nM as indicated). G. The human cell line HBL1 was treated with the IKK2 inhibitors ML120B, PS1145 and BI605906 in the absence or presence of the RIPK1 inhibitor Nec1s (10 μM or 20 μM, as indicated) and/or the BCL-2 inhibitor ABT-199 (125 nM or 250 nM as indicated).
The murine MBC M-191, M-190, M-108, and M-552 cell lines were generated by adopting cells from murine Myd88p.L252P/wt;R26LSL.BCL2/wt;CD19Cre/wt tumors to cell culture conditions. BSQ10, BSQ12.4 and BSQ27 are stable cell lines generated from Cd79 bp.Y195H/wt;Myd88p.L252P/wt;R26LSL.BCL2/wt;CD19Cre/wt tumors. BWQ89.3 is a stable cell line derived from a murine Prdm1flox/flox;Myd88p.L252P/wt;R26LSL.BCL2/wt;CD19Cre/wt tumor. The MBC cell lines are derived from tumors spontaneously developing in mice that B cell-specifically express the Myd88 p.L252P mutation (the murine orthologue of the human p.L265P) from the endogenous locus in combination with a strong BCL2 overexpression derived from a Rosa26 knock-in allele. Both MYD88 mutations and BCL2 overexpression are frequently found in ABC-DLBCL and Myd88p.L252P/wt;R26LSL.BCL2/wt;CD19Cre/wt animals (abbreviated MBC) develop an ABC-DLBCL-like disease with high NF-kB activation (17).
Murine cell lines (FIG. 3 A-F) were cultured in DMEM media (Gibco) containing 10% FCS, 1% penicillin/[…] (Gibco), 6 ml L-glutamine (200 mM, Gibco), 6 ml sodium pyruvate (100 mM, Gibco), 6 ml HEPES (1 M), 6 ml non-essential amino acids (100×, Gibco), and 50 μM 2-mercaptoethanol. […] Cell viability of murine and human cell lines was measured after 72 hrs using CellTiterGlo assay. […]

[3] = tested on: murine MBC cell lines M-108, M-191, and M-552; experiment: Cell viability (CellTiter-Glo), ABT-199 and/or ML120B; conditions: ABT-199 combined with ML120B, 72 hours, M108, M191 and M552, FIG. 2
Protocol: The murine MBC lines M-191, M-190, M-108 and M-552 were treated with ABT-199 and/or IKK2-inhibitor ML120B at the indicated doses for 72 hours and cell viability was measured by CellTiter-Glo®. The illustrations in FIG. 2 represent two independent experiments. To test the pharmacological inhibition potential of IKK2 and BCL-2 to kill lymphoma cells, MBC M-191, M-190, M-108, and M-552 cell lines were cultured in DMEM media (Gibco) containing 10% FCS, 1% penicillin/[…] (Gibco), 6 ml L-glutamine (200 mM, Gibco), 6 ml sodium pyruvate (100 mM, Gibco), 6 ml HEPES (1 M), 6 ml non-essential amino acids (100×, Gibco), 50 μM 2-mercaptoethanol. Then, cell viability assays were used to test the pharmacological inhibition potential of IKK2 (using the inhibitor LY2409881) and BCL-2 (using the inhibitor ABT-199) to kill the MBC M-191, M-190, M-108, and M-552 cell lines. […] After an incubation time of 15 minutes, the luminescence signal was read on a plate reader (Tecan). All conditions were measured in triplicate, randomized across the plate and the DMSO concentration in each well was adjusted to maximum DMSO concentration (0.4%) in all wells, and normalized to untreated conditions. […]

[4] = tested on: human DLBCL cell line HBL1; experiment: Cell viability (CellTiterGlo), IKK2 inhibitors with or without Nec1s and/or ABT-199, FIG. 3 G; conditions: 72 hrs; for synergistic killing of cancer cell lines (cell viability): ABT-199 combined with an IKK2 inhibitor (ML120B, BI605906 or PS1145), HBL1, FIG. 3
Protocol: as §1
Murine cell lines (FIG. 3 A-F) were cultured in DMEM media (Gibco) containing 10% FCS, 1% penicillin/[…] (Gibco), 6 ml L-glutamine (200 mM, Gibco), 6 ml sodium pyruvate (100 mM, Gibco), 6 ml HEPES (1 M), 6 ml non-essential amino acids (100×, Gibco), and 50 μM 2-mercaptoethanol. Cells were plated in opaque 384-well plates at a density of 100.000 cells/ml (30 μl of culture volume) and treated with the indicated compounds dissolved in DMSO using a Tecan D300e digital dispenser. The human DLBCL cell line HBL1 (FIG. 3 G) was cultured in RPMI (Gibco) containing 20% FCS (Gibco) and 1% penicillin/[…] (Gibco) and treated with the indicated compounds dissolved in DMSO using a Tecan D300e digital dispenser. Cell viability of murine and human cell lines was measured after 72 hrs using CellTiterGlo assay. The data points represent mean values of independent experiments.

[5] = tested on: IL-1β production by macrophages; experiment: LPS-induced production of IL-1β by macrophages treated with IKK inhibitors; conditions: pharmacological RIPK1 inhibition

SMILES	synergistic killing of cancer cell lines (cell viability) [2]	synergistic killing of cancer cell lines (cell viability) [3]	synergistic killing of cancer cell lines (cell viability) [4]	further results
CC1(C)CCC(CN2CCN(c3ccc(C(=O)NS(=O)(=O)c4ccc(NCC5CCOCC5)c([N+](=O)[O-])c4)c(Oc4cnc5[nH]ccc5c4)c3)CC2)=C(c2ccc(Cl)cc2)C1 [ABT-199]	synergize to potentiate killing	synergize to potentiate killing	synergize to potentiate killing	killing of lymphoma cells (cell viability) [1]: strong toxicity
O=C(Nc1cc(Cl)cc2c1[nH]c1cnccc12)c1cccnc1 [PS1145]	synergize to potentiate killing	–	synergize to potentiate killing	–
COc1c(Cl)cc2c([nH]c3cnccc32)c1NC(=O)c1cccnc1C [ML120B, N-(6-chloro-7-methoxy-9H-beta-carbolin-8-yl)-2-methylnicotinamide]	synergize to potentiate killing	synergize to potentiate killing	synergize to potentiate killing	–
CN1C(=O)NC(Cc2c[nH]c3c(Cl)cccc23)C1=O (centres unmarked) [Nec1s, 5-((7-chloro-1H-indol-3-yl)methyl)-3-methyl-2,4-imidazolidinedione]	–	–	–	effect of simultaneous RIPK1 inhibitor treatment on the synergizing killing effect of ABT-199 and IKK2 inhibitors ([2]; Nec1s 10 μM or 20 μM): not prevented; effect of simultaneous RIPK1 inhibitor treatment on the synergizing killing effect of ABT-199 and IKK2 inhibitors ([4]; Nec1s 10 μM or 20 μM, HBL1): not prevented
CN1C(=O)C(Cc2c[nH]c3ccccc23)NC1=S (centres unmarked) [Necrostatin-1, 5-(1H-indol-3-ylmethyl)-3-methyl-2-thioxo-4-imidazolidinone]	–	–	–	LPS-induced production of IL-1β [5]: strongly diminishes
CCC(F)(F)c1cc(N2CCC(S(C)(=O)=O)CC2)nc2sc(C(N)=O)c(N)c12 [BI605906]	synergize to potentiate killing	–	synergize to potentiate killing	–
